Source: ChEMBL document CHEMBL1201862, “PubChem BioAssay data set” (2004)
“And” between values parts separate entries of the source, which are not always exact repeats. Equal entries are not always repeated. The source made the active and inactive calls.

Experiments:
HEK293 [1] = test: NOD1 signaling inhibitors, primary screen, cell-based, luminescence, uHTS (AID 1578); format: functional; details: Homo sapiens
HEK293 [2] = test: cells; format: functional, cell-based; details: Homo sapiens
HEK293 [3] = test: cells; format: functional, cell-based; details: Homo sapiens; remark: listed apart in the source
HEK293 [4] = test: NOD2 signaling inhibitors in MDP-stimulated cells, cell-based, uHTS, luminescence (AID 2001); format: functional; details: Homo sapiens
[5] = cytotoxicity in HEK-293T cells, dose response, cytotoxicity control for TCR NF-kB inhibitor project, luminescence, T-cell screen hits (AID 489026); format: functional, cell-based;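 note: cells exposed to compound about 14 hours before the viability readout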
INS1 = test: beta cell apoptosis inhibitors, cytokine rescue, dose response, luminescence, retest (AID 449756); format: functional, cell-based; details: Rattus norvegicus;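 note: cell death triggered by IL-1 beta plus TNF-alpha plus IFN-gamma mixture; protective hits raise ATP signal compared with cytokine alone wells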
[6] = HEp-2 cell cytotoxicity, dose response, cytotoxicity control for RSV inhibitor project, HTS (AID 2410); format: functional; details: human respiratory syncytial virus
[7] = growth suppression of PTEN-null colon cells, dose response, cell-based, HCT116 PTEN knockout (AID 1047); format: functional;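 note: HCT116 colon tumor cells with PTEN knocked out; cells exposed to compound for 60 hours before readout; potency for loss of cell viability measured by luminescence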
[8] = growth suppression of beta-catenin-knockout colon cells, dose response, cell-based, HCT116, human colon tumor (AID 1045); format: functional;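 note: HCT116 colon tumor cells with beta catenin knocked out; cells exposed to compound for 60 hours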
Bcl-2-related protein A1 = molecular target: T1, Bcl-2-related protein A1 (Mus musculus, UniProt Q07440); format: functional;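 note: confirmatory dose–response counterscreen on Bfl-1, used to check hits from a UBC13 polyubiquitin inhibitor campaign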
T1 sequence (Q07440 whole entry): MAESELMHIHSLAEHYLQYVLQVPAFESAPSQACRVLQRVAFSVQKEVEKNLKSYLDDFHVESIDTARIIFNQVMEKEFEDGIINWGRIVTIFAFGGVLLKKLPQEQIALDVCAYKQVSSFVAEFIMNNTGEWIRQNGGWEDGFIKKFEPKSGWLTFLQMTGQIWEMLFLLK

[9] = molecular target: T2, Ubiquitin-conjugating enzyme E2 N (Homo sapiens, UniProt P61088); format: functional
T2 sequence (P61088 whole entry): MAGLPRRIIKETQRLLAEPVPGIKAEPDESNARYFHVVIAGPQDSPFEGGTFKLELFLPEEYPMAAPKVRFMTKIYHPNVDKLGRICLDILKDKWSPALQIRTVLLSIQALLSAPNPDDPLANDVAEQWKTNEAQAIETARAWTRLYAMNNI

[10] = molecular target: T2, Ubiquitin-conjugating enzyme E2 N; format: functional; remark: listed apart in the source
[11] = molecular target: T3, DNA repair protein RAD52 homolog (Homo sapiens, UniProt P43351); format: functional, biochemical
T3 sequence (P43351 whole entry): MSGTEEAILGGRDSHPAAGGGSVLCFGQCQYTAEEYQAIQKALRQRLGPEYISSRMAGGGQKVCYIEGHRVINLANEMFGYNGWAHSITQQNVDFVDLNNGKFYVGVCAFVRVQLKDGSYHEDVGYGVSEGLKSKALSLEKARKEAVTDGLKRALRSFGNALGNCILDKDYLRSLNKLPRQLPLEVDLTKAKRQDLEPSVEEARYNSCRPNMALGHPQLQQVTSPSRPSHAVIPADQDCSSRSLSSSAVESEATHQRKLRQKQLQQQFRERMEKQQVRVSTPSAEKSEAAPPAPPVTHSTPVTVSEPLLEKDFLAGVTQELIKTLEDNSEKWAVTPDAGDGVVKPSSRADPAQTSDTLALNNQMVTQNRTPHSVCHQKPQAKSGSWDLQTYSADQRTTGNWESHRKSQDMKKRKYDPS

[12] = molecular target: Heat shock protein HSP 90-alpha (Homo sapiens, UniProt P07900); format: functional, organism-based
SUMO E1/E2 = SUMO E1/E2 (Homo sapiens, UniProt P63279+Q9UBE0+Q9UBT2); test: SAR analysis of SUMOylation using HTRF in an in-Vitro dose response assay. [Related pubchem assays (depositor defined):AID2006, AID2011, AID2018, AID2069, AID2658]; format: functional
Sequence of SUMO E1/E2 (Q9UBE0 whole entry): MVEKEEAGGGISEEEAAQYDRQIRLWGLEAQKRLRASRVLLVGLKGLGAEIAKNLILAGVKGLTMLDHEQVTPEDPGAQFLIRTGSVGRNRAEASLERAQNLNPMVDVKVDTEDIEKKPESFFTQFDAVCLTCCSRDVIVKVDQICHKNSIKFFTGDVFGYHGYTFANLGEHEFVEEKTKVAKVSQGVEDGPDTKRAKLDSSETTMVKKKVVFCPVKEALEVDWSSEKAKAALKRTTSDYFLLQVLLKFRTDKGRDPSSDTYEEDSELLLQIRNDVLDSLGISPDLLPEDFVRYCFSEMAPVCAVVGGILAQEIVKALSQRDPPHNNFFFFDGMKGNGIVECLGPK
Sequence of SUMO E1/E2 (Q9UBT2 whole entry): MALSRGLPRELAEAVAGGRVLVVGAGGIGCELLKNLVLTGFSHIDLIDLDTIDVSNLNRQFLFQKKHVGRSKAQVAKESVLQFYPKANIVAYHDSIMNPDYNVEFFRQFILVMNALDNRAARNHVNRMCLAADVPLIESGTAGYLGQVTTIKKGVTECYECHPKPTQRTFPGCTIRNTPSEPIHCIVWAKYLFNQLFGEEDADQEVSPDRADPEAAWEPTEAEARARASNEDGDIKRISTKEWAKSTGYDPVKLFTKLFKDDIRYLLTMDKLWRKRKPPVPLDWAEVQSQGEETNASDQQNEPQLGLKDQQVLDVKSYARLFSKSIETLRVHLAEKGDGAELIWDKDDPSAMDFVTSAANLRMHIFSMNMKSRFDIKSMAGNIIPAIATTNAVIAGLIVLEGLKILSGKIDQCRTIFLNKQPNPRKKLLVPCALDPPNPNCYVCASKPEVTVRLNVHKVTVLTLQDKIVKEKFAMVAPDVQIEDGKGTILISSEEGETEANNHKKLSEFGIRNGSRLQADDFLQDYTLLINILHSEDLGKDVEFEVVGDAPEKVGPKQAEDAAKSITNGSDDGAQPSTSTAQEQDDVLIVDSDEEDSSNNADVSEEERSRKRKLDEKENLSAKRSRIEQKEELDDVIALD
Sequence of SUMO E1/E2 (P63279 whole entry): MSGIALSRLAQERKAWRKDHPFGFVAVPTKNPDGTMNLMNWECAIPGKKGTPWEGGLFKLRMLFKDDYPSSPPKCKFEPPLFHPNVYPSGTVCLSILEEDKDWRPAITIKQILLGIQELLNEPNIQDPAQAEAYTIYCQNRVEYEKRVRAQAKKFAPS

| Structure (SMILES) | EC50 (HEK293 [1]) | IC50 (HEK293 [2]) | IC50 (HEK293 [3]) | IC50 (HEK293 [4]) | IC50 (Bcl-2-related protein A1) | IC50 [9] | IC50 [10] | also measured |
| --- | --- | --- | --- | --- | --- | --- | --- | --- |
| CCn1nc(C)c(CNC(=O)c2ccc(OC3CCN(Cc4ccccn4)CC3)cc2)c1C | 2.57 µM (active) | 4.94 µM (active) | 13.8 µM (active) | 9.64 µM (active) | – | – | – | IC50 [5]: > 80 µM (inactive); AC50 (INS1): 3.87 µM (active) |
| Cc1ccc(C)c(OCC(O)CN2CCN(CCN3C(=O)c4cccc5cccc(c45)C3=O)CC2)c1 (configuration not stated) | – | – | – | – | > 20 µM (inactive) | 7.55 µM (active) | 9.34 µM (active) | CC50 [6]: 15.8 µM (active); EC50 [7]: 6.21 µM (active); EC50 [8]: 3.71 µM (active); AC50 [11]: 7.35 µM (active) |
| CCN(CC)S(=O)(=O)c1cccc(NC(=O)c2ccc(Br)cc2)c1 | 11.6 µM (active) | 10.1 µM (active) | 14.1 µM (active) | 7.75 µM (active) | – | – | – | AC50 [12]: 3.55 µM (active) |
| O=C1c2oc3ccccc3c(=O)c2C(c2ccccc2)N1c1nccs1 (configuration not stated) | – | – | – | – | – | – | – | IC50 (SUMO E1/E2): 22.4 µM (active) |
| C[C@@H]1O[C@@H](O[C@H]2[C@H](Oc3cc(O)c4c(c3)O[C@H](c3ccc(O)cc3)CC4=O)O[C@H](CO)[C@@H](O)[C@@H]2O)[C@H](O)[C@H](O)[C@H]1O [NARINGIN] | – | – | – | – | > 20 µM (inactive) | 12.2 µM (active) and 8.7 µM (active) | 5.77 µM (active) and 6.66 µM (active) | – |
